Measurements: patent US20230158136A1 (priority 2021, published 2023)
Where no end group is shown, it is not given here.

Assay: in vitro
Conditions: human, 293T cells

Q: For KKALLAHALHLLALLALHLAHALKKA-NH2 [LAH4], which CC50 at 24 h is on record?
A: > 125 µg/mL
